In patent US8557741B2, “3-aminocarbonyl-substituted benzoylcyclohexanediones and their use as herbicides” (Bayer CropScience AG, priority 2010, dated 2013):
Like-named read-outs stand apart in the source and are kept apart here.

Experiments:
Assay type in all cases: in vivo
Veronica persica [1] = assay: Pre-emergence herbicidal action against harmful plants; conditions: 504 h, dosage 320 g/ha, visual assessment after 3 weeks (Table A), read-out: Herbicidal action against VERPE
Description: (§1) The abbreviations used in the tables below denote: • ABUTH Abutilon theophrasti • AMARE Amaranthus retroflexus • ECHCG Echinochloa crus galli • PHBPU Phartoitis purpureum • STEME Stellaria media • ALOMY Alopecurus myosuroides • AVEFA Avena fatua • MATIN Matricaria inodora • POLCO Fallopia convolvulus • VERPE Veronica persica 1. Pre-emergence Herbicidal Action Against Harmful Plants Seeds of monocotyledonous and dicotyledonous weed plants and crop plants are placed in wood-fibre pots in sandy loam and covered with soil. The compounds according to the invention and the compounds known from the prior art, formulated in the form of wettable powders (WP) or as emulsion concentrates (EC), are then applied as aqueous suspension or emulsion at a water application rate of 600 to 800 I/ha (converted) with the addition of 0.2% of wetting agent to the surface of the covering soil. After the treatment, the pots are placed in a greenhouse and kept under good growth conditions for the test plants. The visual assessment of the damage to the test plants is carried out after a trial period of 3 weeks by comparison with untreated controls (herbicidal activity in percent (%): 100% activity=the plants have died, 0% activity=like control plants, —=not tested). The results of comparative table A show the compounds according to the invention have a higher herbicidal activity than the compounds of the greatest structural similarity known from the closest prior art.

Stellaria media [2] = assay: as above; conditions: 504 h, dosage 320 g/ha, visual assessment after 3 weeks (Table A), read-out: Herbicidal action against STEME
Description: as §1

Phartoitis purpureum [3] = assay: as above; conditions: dosage 320 g/ha, visual assessment after 3 weeks (Table A)
Description: as §1

Matricaria inodora [4] = assay: as above; conditions: Tripleurospermum inodorum, 504 h, dosage 320 g/ha, visual assessment after 3 weeks (Table A), read-out: Herbicidal action against MATIN
Description: as §1

Amaranthus retroflexus [5] = assay: as above; conditions: 504 h, dosage 320 g/ha, visual assessment after 3 weeks (Table A), read-out: Herbicidal action against AMARE
Description: as §1

Echinochloa crus galli [6] = assay: as above; conditions: Echinochloa, 504 h, dosage 320 g/ha, visual assessment after 3 weeks (Table A), read-out: Herbicidal action against ECHCG
Description: as §1

Abutilon theophrasti [7] = assay: as above; conditions: Abutilon theophrasti, 504 h, dosage 320 g/ha, visual assessment after 3 weeks (Table A), read-out: Herbicidal action against ABUTH
Description: as §1

Veronica persica [8] = assay: Post-emergence herbicidal action against harmful plants; conditions: 504 h, dosage 80 g/ha, visual rating after about 3 weeks (Table D), read-out: Herbicidal action against VERPE
Description: (§2) The abbreviations used in the tables below denote: • ABUTH Abutilon theophrasti • AMARE Amaranthus retroflexus • ECHCG Echinochloa crus galli • PHBPU Phartoitis purpureum • STEME Stellaria media • ALOMY Alopecurus myosuroides • AVEFA Avena fatua • MATIN Matricaria inodora • POLCO Fallopia convolvulus • VERPE Veronica persica 1. Pre-emergence Herbicidal Action Against Harmful Plants Seeds of monocotyledonous and dicotyledonous weed and crop plants are placed in sandy loam in wood-fibre pots, covered with soil and cultivated in a greenhouse under good growth conditions. 2 to 3 weeks after sowing, the test plants are treated at the one-leaf stage. The compounds according to the invention, formulated in the form of wettable powders (WP) or as emulsion concentrates (EC), are then sprayed as aqueous suspension or emulsion at a water application rate of 600 to 800 I/ha (converted) with the addition of 0.2% of wetting agent onto the green parts of the plants. After the test plants have been kept in the greenhouse under optimum growth conditions for about 3 weeks, the activity of the preparations is rated visually in comparison to untreated controls (herbicidal activity in percent (%): 100% activity=the plants have died, 0% activity=control plants, —=not tested).

Stellaria media [9] = assay: as above; conditions: 504 h, dosage 80 g/ha, visual rating after about 3 weeks (Table D), read-out: Herbicidal action against STEME
Description: as §2

Phartoitis purpureum [10] = assay: as above; conditions: 504 h, dosage 80 g/ha
Description: as §2

Matricaria inodora [11] = assay: as above; conditions: Tripleurospermum inodorum, 504 h, dosage 80 g/ha, read-out: Herbicidal action against MATIN
Description: as §2

Amaranthus retroflexus [12] = assay: as above; conditions: 504 h, dosage 80 g/ha, visual rating after about 3 weeks (Table D), read-out: Herbicidal action against AMARE
Description: as §2

Echinochloa crus galli [13] = assay: as above; conditions: 504 h, dosage 80 g/ha, visual rating after about 3 weeks (Table D), read-out: Herbicidal action against ECHCG
Description: as §2

Abutilon theophrasti [14] = assay: as above; conditions: 504 h, dosage 80 g/ha, read-out: Herbicidal action against ABUTH
Description: as §2

Fallopia convolvulus = assay: as above; conditions: 504 h, dosage 80 g/ha, read-out: Herbicidal action against POLCO
Description: as §2

[15] = visual rating after about 3 weeks (Table D), read-out: Herbicidal action against PHBPU
[16] = visual rating after about 3 weeks (Table D)
[17] = visual rating after about 3 weeks (Table E), read-out: Herbicidal action against PHPBU
[18] = visual rating after about 3 weeks (Table E)

Structure (SMILES) | pest or weed control at 320 g/ha (Veronica persica [1]) [%] | pest or weed control at 320 g/ha (Stellaria media [2]) [%] | Herbicidal action against PHBPU (Phartoitis purpureum [3]) [%] | pest or weed control at 320 g/ha (Matricaria inodora [4]) [%] | pest or weed control at 320 g/ha (Amaranthus retroflexus [5]) [%] | pest or weed control at 320 g/ha (Echinochloa crus galli [6]) [%] | pest or weed control at 320 g/ha (Abutilon theophrasti [7]) [%] | pest or weed control at 80 g/ha (Veronica persica [8]) [%] | pest or weed control at 80 g/ha (Stellaria media [9]) [%] | pest or weed control at 80 g/ha (Phartoitis purpureum [10]; [15]) [%] | pest or weed control at 80 g/ha (Matricaria inodora [11]; [16]) [%] | pest or weed control at 80 g/ha (Amaranthus retroflexus [12]) [%] | pest or weed control at 80 g/ha (Echinochloa crus galli [13]) [%] | pest or weed control at 80 g/ha (Abutilon theophrasti [14]; [16]) [%] | pest or weed control at 80 g/ha (Fallopia convolvulus; [16]) [%] | pest or weed control at 80 g/ha (Phartoitis purpureum [10]; [17]) [%] | pest or weed control at 80 g/ha (Matricaria inodora [11]; [18]) [%] | pest or weed control at 80 g/ha (Abutilon theophrasti [14]; [18]) [%] | pest or weed control at 80 g/ha (Fallopia convolvulus; [18]) [%]
CCN(CC)C(=O)COc1c(S(=O)(=O)CC)ccc(C(=O)C2=C(O)CCCC2=O)c1C(F)(F)F [Compound E3] | 100 | 100 | 90 | 100 | 100 | 100 | 100 | 100 | 100 | 90 | 90 | 100 | 100 | 100 | 90 | – | – | – | –
CCS(=O)(=O)c1ccc(C(=O)C2=C(O)CCCC2=O)c(Cl)c1OCC(=O)NC [Compound S10, reference compound] | – | – | – | – | – | – | – | – | – | – | – | – | – | – | – | 90 | 70 | 90 | 80
CCN(CC)C(=O)COc1c(S(C)(=O)=O)ccc(C(=O)C2=C(O)CCCC2=O)c1C(F)(F)F [Compound E2] | 100 | 90 | 80 | 100 | 100 | 100 | 100 | 100 | 100 | 100 | 100 | 100 | 90 | 90 | – | – | – | – | –
CCS(=O)(=O)c1ccc(C(=O)C2=C(O)CCCC2=O)c(C(F)(F)F)c1OCC(=O)NC [Compound E10] | – | – | – | – | – | – | – | – | – | – | – | – | – | – | – | 100 | 90 | 100 | 100
CCN(CC)C(=O)COc1c(S(=O)(=O)CC)ccc(C(=O)C2=C(O)CCCC2=O)c1Cl [Compound S3, reference compound] | 100 | 50 | 40 | 80 | 80 | 50 | 70 | 90 | 90 | 60 | 70 | 100 | 0 | 90 | 40 | – | – | – | –
CCN(C)C(=O)COc1c(S(=O)(=O)CC)ccc(C(=O)C2=C(O)CCCC2=O)c1Cl [Compound S6, reference compound] | 90 | 80 | – | 80 | 100 | 90 | 100 | 100 | 90 | 80 | 80 | 80 | 20 | 90 | 0 | – | – | – | –
CCN(CC)C(=O)COc1c(S(C)(=O)=O)ccc(C(=O)C2=C(O)CCCC2=O)c1Cl [Compound S2, reference compound] | 100 | 20 | 70 | 60 | 100 | 70 | 40 | 90 | 90 | 90 | 70 | 90 | 30 | 80 | – | – | – | – | –
CCN(C)C(=O)COc1c(S(=O)(=O)CC)ccc(C(=O)C2=C(O)CCCC2=O)c1C(F)(F)F [Compound E6] | 100 | 100 | – | 100 | 100 | 100 | 100 | 100 | 100 | 100 | 100 | 90 | 100 | 100 | 90 | – | – | – | –
CN(C)C(=O)COc1c(S(C)(=O)=O)ccc(C(=O)C2=C(O)CCCC2=O)c1Cl [Compound S4, reference compound] | 100 | 90 | – | 80 | 100 | 40 | 50 | 90 | 90 | – | 70 | 60 | – | 70 | 0 | – | – | – | –
CN(C)C(=O)COc1c(S(C)(=O)=O)ccc(C(=O)C2=C(O)CCCC2=O)c1C(F)(F)F [Compound E4] | 100 | 90 | – | 100 | 100 | 100 | 100 | 100 | 100 | – | 90 | 90 | – | 90 | 70 | – | – | – | –
